In the Kinase Knowledgebase extract (Sharma et al. 2016):

Molecular target: MAPK14 (human) (UniProt Q16539)
Test: Inhibition of MAPK14 Kinase Activity

MAPK14 (human), sequence (Q16539 whole entry, looked up): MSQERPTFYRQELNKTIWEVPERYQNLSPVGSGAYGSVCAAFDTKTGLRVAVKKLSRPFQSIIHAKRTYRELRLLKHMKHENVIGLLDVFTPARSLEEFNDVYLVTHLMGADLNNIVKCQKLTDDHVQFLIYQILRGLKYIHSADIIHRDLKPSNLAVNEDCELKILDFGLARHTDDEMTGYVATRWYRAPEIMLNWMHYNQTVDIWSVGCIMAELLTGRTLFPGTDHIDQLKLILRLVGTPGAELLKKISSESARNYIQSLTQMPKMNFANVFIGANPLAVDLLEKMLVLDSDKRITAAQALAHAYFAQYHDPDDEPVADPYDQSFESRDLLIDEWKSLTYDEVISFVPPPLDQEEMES

Row | Compound | IC50 [µM]
1 | Cc1ccccc1-c1ncnc2c1[nH]c(=O)n2-c1c(F)cccc1F | 0.5
2 | O=c1[nH]c2c(-c3ccccc3Cl)ncnc2n1-c1c(F)cccc1F | 0.9
3 | O=c1[nH]c2c(-c3ccccc3)ncnc2n1-c1c(F)cccc1F | 17.5
4 | Cc1ccccc1-c1ncnc2c1[nH]c(=O)n2-c1c(C)cccc1C | 18.1
5 | O=c1[nH]c2c(-c3ccccc3F)ncnc2n1-c1c(F)cccc1F | 7.8
6 | COc1ccc(-n2c(=O)[nH]c3c(-c4ccccc4C)ncnc32)c(OC)c1 | 5.2

More lines, in order of falling IC50, values ahead:

Row | IC50 [µM] | Compound
7 | 100 | Cc1ccccc1-c1ncnc2c1[nH]c(=S)n2-c1c(C)cccc1C
8 | 7.8 | Cc1cccc(C)c1-n1c(=O)[nH]c2c(-c3ccccc3Cl)ncnc21
9 | 2.7 | O=c1[nH]c2c(-c3ccccc3Cl)ncnc2n1-c1ccc(F)cc1F
10 | 1.6 | Cc1ccccc1-c1ncnc2c1[nH]c(=O)n2-c1ccc(F)cc1F
